Paper PMC6272417, “Quercitrin, an Inhibitor of Sortase A, Interferes with the Adhesion of Staphylococcal aureus” (Molecules, 2015)

Legend:
Settings in all cases: read-out: Binding Constants KA (1 × 10^5) L.mol^-1 (converted)
[1] = molecular target: T1, Sortase A (SrtA) (Staphylococcus aureus, UniProt Q2FV99, V193A); assay: fluorescence-quenching binding constant KA
T1 construct: SrtAΔN59 (residues 60-206)

[2] = molecular target: T2, Sortase A (SrtA) (Staphylococcus aureus, UniProt Q2FV99); assay: fluorescence-quenching binding constant KA; also FRET inhibition of purified SrtAΔN59 (IC50 […])
T2 construct: SrtAΔN59 (residues 60-206)

[3] = molecular target: T3, Sortase A (SrtA) (Staphylococcus aureus, UniProt Q2FV99, G167A); assay: fluorescence-quenching binding constant KA
T3 construct: SrtAΔN59 (residues 60-206)

`C[C@@H]1O[C@@H](Oc2c(-c3ccc(O)c(O)c3)oc3cc(O)cc(O)c3c2=O)[C@H](O)[C@H](O)[C@H]1O` [QEN, Quercitrin] showed a Kd [1] of 2.38 µM, a Kd [2] of 1.45 µM and a Kd [3] of 2.7 µM.
